Measurements reported in patent publication US10888567B2, “Inhibitors of tryptophan dioxygenases (IDO1 and TDO) and their use in therapy” (AUCKLAND UNISERVICES LIMITED, priority 2014, dated 2021).

Tests used:
[1] = target: Recombinant human IDO1 (rhIDO1) (Homo sapiens (Human), UniProt P14902); test: Enzymatic assay for IDO1 activity; format: biochemical; details: rhIDO1 9 nM, 80 μM TRP, 37° C. 30 min
Experimental: Recombinant human IDO1 (rhIDO1) was expressed and purified from cultures of EC538 strain of E. coli transformed with pREP4 and pQE9-IDO plasmid. Reaction mixes were set up in 384-well microplates containing 50 mM phosphate buffer, 10 mM ascorbic, 10 μM methylene blue, 100 μg/mL catalase, 80 μM TRP, 0.01% Tween 20 (v/v) mixed with rhIDO1 (15 μL) at a final concentration of 9 nM in a total volume of 30 μL assay medium. The plates were incubated at 37° C. for 30 min, and the enzymatic reaction was terminated by adding piperidine (200 mM) and heated at 65° C. for 20 min. Fluorescence intensity was read at λex 400 nm and λem 500 nm. Test compounds were dissolved in 100% DMSO and pre-diluted in assay medium prior to adding rhIDO1. IDO1 inhibition (%) was calculated as
[formula] All experiments were carried out in triplicates, and statistical Analyses were conducted in Prism v5 (Graphpad Software, Inc., La Jolla, Calif., USA). Cell-Based Assay for IDO1 Inhibition

[2] = target: human IDO1 (LLTC-hIDO1 cells) (Homo sapiens, UniProt P14902); test: Cell-based assay for IDO1 inhibition (kynurenine in supernatant); details: IDO1-transfected Lewis Lung carcinoma cells, 24 h; read-out: Cellular IC50
Experimental: Culture supernatant from each well was then transferred into a fresh, flat-bottomed 96-well plate, mixed with trichloroacetic acid (10% final concentration) and incubated for 20 min at 60° C. […] The absorbance of each well was read at 480 nm, and the concentration that inhibited 50% cellular enzyme activity was calculated.

[3] = tested on: Lewis Lung carcinoma cells transfected to express IDO1 (LLTC-hIDO1); test: MTT cell viability in the cellular IDO1 assay; format: cell-based; details: same experiment as cellular IDO1 assay
Experimental: The viability of the cells in each well in the same experiment was determined using the 3-(4,5-dimethylthiazolyl-2-yl)-2,5-diphenyltetrazolium bromide (MTT) colourimetric assay. After the removal of the supernatant for determination of IDO1 inhibition, the cells were incubated with MTT (500 μg/mL) until crystal formation was observed. […] DMSO (100 μL/well) was added to dissolve the crystals and then the absorbance in each well was measured at 570 nm. Cell viability in each well was expressed as a percentage of untreated controls. Triplicate cultures were used for all experiments unless stated otherwise.

Chain of Recombinant human IDO1 (rhIDO1) (P14902 whole entry): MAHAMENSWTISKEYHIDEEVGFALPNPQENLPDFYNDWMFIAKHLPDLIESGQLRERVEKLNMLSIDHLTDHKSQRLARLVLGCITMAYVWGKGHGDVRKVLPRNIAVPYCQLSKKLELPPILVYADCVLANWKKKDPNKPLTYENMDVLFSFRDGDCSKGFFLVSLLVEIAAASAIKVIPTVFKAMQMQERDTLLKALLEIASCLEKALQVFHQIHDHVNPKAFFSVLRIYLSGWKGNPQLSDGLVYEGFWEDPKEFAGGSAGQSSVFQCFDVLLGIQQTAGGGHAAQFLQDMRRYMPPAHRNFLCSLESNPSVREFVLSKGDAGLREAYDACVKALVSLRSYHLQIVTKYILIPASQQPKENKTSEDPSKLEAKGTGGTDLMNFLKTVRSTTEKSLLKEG

SMILES	IC50 [1] [µM]	IC50 [2] [µM]	IC50 [3] [µM]
Cc1nc2onc(N)c2c(C)c1Br [Compound 1, 5-Bromo-4,6-dimethylisoxazolo[5,4-b]pyridin-3-amine]	1 to 10	< 1	> 100
Nc1noc2ncccc12 [Compound 2, Isoxazolo[5,4-b]pyridin-3-amine]	> 100	10 to 100	> 100
Cc1cc(C)c2c(N)noc2n1 [Compound 4, 4,6-Dimethylisoxazolo[5,4-b]pyridin-3-amine]	10 to 100	1 to 10	> 100
Cc1nc2onc(N)c2c(C)c1C [Compound 5, 4,5,6-Trimethylisoxazolo[5,4-b]pyridin-3-amine]	10 to 100	–	–
Nc1noc2ncc(Br)cc12 [Compound 6, 5-Bromoisoxazolo[5,4-b]pyridin-3-amine]	10 to 100	< 1	> 100
Cc1ccc2c(N)noc2n1 [Compound 7, 6-Methylisoxazolo[5,4-b]pyridin-3-amine]	> 100	–	–
Nc1noc2ncc(Cl)cc12 [Compound 8, 5-Chloroisoxazolo[5,4-b]pyridin-3-amine]	10 to 100	< 1	> 100
Nc1noc2nc3ccccc3cc12 [Compound 9, Isoxazolo[5,4-b]quinolin-3-amine]	10 to 100	1 to 10	> 100
Nc1noc2nc3c(cc12)CCCC3 [Compound 10, 5,6,7,8-Tetrahydroisoxazolo[5,4-b]quinolin-3-amine]	> 100	1 to 10	> 100
Nc1noc2ncncc12 [Compound 12, Isoxazolo[5,4-d]pyrimidin-3-amine]	> 100	1 to 10	> 100
Nc1noc2nccc(-c3ccccc3)c12 [Compound 13, 4-Phenylisoxazolo[5,4-b]pyridin-3-amine]	> 100	> 100	> 100
Nc1noc2ncc(F)cc12 [Compound 14, 5-Fluoroisoxazolo[5,4-b]pyridin-3-amine]	> 100	–	–
Nc1noc2nc(-c3ccccc3)ccc12 [Compound 15, 6-Phenylisoxazolo[5,4-b]pyridin-3-amine]	> 100	1 to 10	> 100
Nc1noc2ncc(I)cc12 [Compound 16, 5-Iodoisoxazolo[5,4-b]pyridin-3-amine]	1 to 10	< 1	> 100
Nc1noc2ccncc12 [Compound 17, Isoxazolo[4,5-c]pyridin-3-amine]	> 100	–	–
CN(C)c1ccc2c(N)noc2n1 [Compound 18, N^6,N^6-Dimethylisoxazolo[5,4-b]pyridine-3,6-diamine]	> 100	–	–
CN(C)c1ccnc2onc(N)c12 [Compound 19, N^4,N^4-Dimethylisoxazolo[5,4-b]pyridine-3,4-diamine]	> 100	–	–
CNc1noc2nc(C)c(Cl)c(C)c12 [Compound 20, 5-Chloro-N^3,4,6-trimethylisoxazolo[5,4-b]pyridin-3-amine]	> 100	10 to 100	> 100
Nc1noc2ncc(-c3ccccc3O)cc12 [Compound 28, 2-(3-Aminoisoxazolo[5,4-b]pyridin-5-yl)phenol]	> 100	–	–
Nc1noc2ncc(-c3ccc(F)cc3)cc12 [Compound 30, 5-(4-Fluorophenyl)isoxazolo[5,4-b]pyridin-3-amine]	> 100	–	–
Cc1cc(Cl)nc2onc(N)c12 [Compound 42, 6-Chloro-4-methylisoxazolo[5,4-b]pyridin-3-amine]	< 1	< 1	> 100
Nc1ccc2c(N)noc2n1 [Compound 43, Isoxazolo[5,4-b]pyridine-3,6-diamine]	> 100	–	–
Cc1cnc2onc(N)c2c1 [Compound 44, 5-Methylisoxazolo[5,4-b]pyridin-3-amine]	> 100	10 to 100	> 100
Cc1cc2c(N)noc2nc1C [Compound 45, 5,6-Dimethylisoxazolo[5,4-b]pyridin-3-amine]	> 100	10 to 100	> 100

Second part, the compound after the results:

IC50 [1] [µM]	IC50 [2] [µM]	IC50 [3] [µM]	SMILES
> 100	10 to 100	> 100	Cc1cc(C(F)(F)F)c2c(N)noc2n1 [Compound 46, 6-Methyl-4-(trifluoromethyl)isoxazolo[5,4-b]pyridin-3-amine]
< 1	1 to 10	> 100	Nc1noc2nc(C(F)(F)F)ccc12 [Compound 47, 6-(Trifluoromethyl)isoxazolo[5,4-b]pyridin-3-amine]
> 100	10 to 100	> 100	CC(C)c1ccc2c(N)noc2n1 [Compound 48, 6-Isopropylisoxazolo[5,4-b]pyridin-3-amine]
1 to 10	< 1	> 100	Nc1noc2ncc([N+](=O)[O-])cc12 [Compound 49, 5-Nitroisoxazolo[5,4-b]pyridin-3-amine]
10 to 100	10 to 100	> 100	CCOC(=O)c1cc2c(N)noc2nc1C(F)(F)F [Compound 50, Ethyl 3-amino-6-(trifluoromethyl)isoxazolo[5,4-b]pyridine-5-carboxylate]
> 100	–	–	COc1ccnc2onc(N)c12 [Compound 51, 4-Methoxyisoxazolo[5,4-b]pyridin-3-amine]
> 100	10 to 100	> 100	Cc1nc2onc(N)c2c(C)c1OC(F)F [Compound 52, 5-(Difluoromethoxy)-4,6-dimethylisoxazolo[5,4-b]pyridin-3-amine]
> 100	–	–	CCOC(=O)c1cc2c(N)noc2nc1C [Compound 53, Ethyl 3-amino-6-methylisoxazolo[5,4-b]pyridine-5-carboxylate]
> 100	10 to 100	> 100	CCOC(=O)c1cc2c(N)noc2nc1C(F)F [Compound 54, Ethyl 3-amino-6-(difluoromethyl)isoxazolo[5,4-b]pyridine-5-carboxylate]
> 100	–	–	Nc1noc2nc(N3CCOCC3)c(F)cc12 [Compound 55, 5-Fluoro-6-morpholinoisoxazolo[5,4-b]pyridin-3-amine]
> 100	> 100	> 100	Nc1noc2nc(NC3CC3)c(F)cc12 [Compound 56, N6-Cyclopropyl-5-fluoroisoxazolo[5,4-b]pyridine-3,6-diamine]
> 100	> 100	> 100	CN(C)c1nc2onc(N)c2cc1F [Compound 57, 5-Fluoro-N6,N6-dimethylisoxazolo[5,4-b]pyridine-3,6-diamine]
> 100	1 to 10	> 100	Nc1noc2nc(-c3ccco3)ccc12 [Compound 58, 6-(Furan-2-yl)isoxazolo[5,4-b]pyridin-3-amine]
> 100	> 100	> 100	Nc1noc2nc3c(cc12)CCC3 [Compound 59, 6,7-Dihydro-5H-cyclopenta[b]isoxazolo[4,5-e]pyridin-3-amine]
> 100	–	–	Nc1noc2nc3c(cc12)CCCCC3 [Compound 60, 6,7,8,9-Tetrahydro-5H-cyclohepta[b]isoxazolo[4,5-e]pyridin-3-amine]
> 100	–	–	CC1(C)CCc2nc3onc(N)c3cc2C1 [Compound 61, 6,6-Dimethyl-5,6,7,8-tetrahydroisoxazolo[5,4-b]quinolin-3-amine]
> 100	–	–	Nc1noc2nc3c(cc12)COCC3 [Compound 62, 7,8-Dihydro-5H-isoxazolo[5,4-b]pyrano[3,4-e]pyridin-3-amine]
> 100	10 to 100	> 100	CSc1ncc2c(N)noc2n1 [Compound 63, 6-(Methylthio)isoxazolo[5,4-d]pyrimidin-3-amine]
> 100	–	–	Nc1noc2nc(Oc3ccccc3)ccc12 [Compound 83, 6-Phenoxyisoxazolo[5,4-b]pyridin-3-amine]
> 100	–	–	Nc1noc2nc(Oc3cccc(Cl)c3)ccc12 [Compound 85, 6-(3-Chlorophenoxy)isoxazolo[5,4-b]pyridin-3-amine]
> 100	–	–	Nc1noc2nc(Oc3ccc(Cl)cc3)ccc12 [Compound 86, 6-(4-Chlorophenoxy)isoxazolo[5,4-b]pyridin-3-amine]
> 100	–	–	COc1cccc(Oc2ccc3c(N)noc3n2)c1 [Compound 91, 6-(3-Methoxyphenoxy)isoxazolo[5,4-b]pyridin-3-amine]
> 100	–	–	COc1ccc(Oc2ccc3c(N)noc3n2)cc1 [Compound 92, 6-(4-Methoxyphenoxy)isoxazolo[5,4-b]pyridin-3-amine]
